Results published in the supplement of paper PMC10307832.

Experiments:
Experiment in all cases: relative viability (nuclei count vs DMSO), 5 days (fraction); higher = more cells survive
NCI-H2347 = tested on: NCI-H2347
Method in brief: (§1)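 Five library-drug doses in √10 steps were combined with a fixed anchor-drug dose, or a single drug was given alone, by pin tool to lung cancer cell lines in 1536-well plates the day after seeding. Nuclei were stained and counted after 5 days. Relative viability is the nuclei count in treated wells over that in vehicle wells, taken as the median of duplicate plates.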

NCI-H1915 = tested on: NCI-H1915
Method in brief: as §1

NCI-H1993 = tested on: NCI-H1993
Method in brief: as §1

NCI-H1651 = tested on: NCI-H1651
Method in brief: as §1

COR-L23 = tested on: COR-L23
Method in brief: as §1

PC-14 = tested on: PC-14
Method in brief: as §1

EPLC-272H = tested on: EPLC-272H
Method in brief: as §1

LU99A = tested on: LU99A
Method in brief: as §1

NCI-H2023 = tested on: NCI-H2023
Method in brief: as §1

NCI-H838 = tested on: NCI-H838
Method in brief: as §1

NCI-H1355 = tested on: NCI-H1355
Method in brief: as §1

HCC-78 = tested on: HCC-78
Method in brief: as §1

HCC-15 = tested on: HCC-15
Method in brief: as §1

ABC-1 = tested on: ABC-1
Method in brief: as §1

UMC-11 = tested on: UMC-11
Method in brief: as §1

HARA = tested on: HARA
Method in brief: as §1

NCI-H2085 = tested on: NCI-H2085
Method in brief: as §1

NCI-H650 = tested on: NCI-H650
Method in brief: as §1

NCI-H2126 = tested on: NCI-H2126
Method in brief: as §1

LC-2-ad = tested on: LC-2-ad
Method in brief: as §1

SW 1573 = tested on: SW 1573
Method in brief: as §1

NCI-H358 = tested on: NCI-H358
Method in brief: as §1

NCI-H2342 = tested on: NCI-H2342
Method in brief: as §1

O=C(O)c1ccc(-c2c[nH]c3ncc(-c4ccccc4)cc23)cc1C1CCCC1 + O=C(CCCCCCC(=O)Nc1ccccc1)NO [Vorinostat] (partner 1 µM)
relative viability (NCI-H2347; first compound 0.04 µM): 0.576
relative viability (NCI-H2347; first compound 0.1265 µM): 0.773
relative viability (NCI-H2347; first compound 0.4 µM): 0.597
relative viability (NCI-H2347; first compound 1.265 µM): 0.46
relative viability (NCI-H1915; first compound 0.04 µM): 0.532
relative viability (NCI-H1915; first compound 0.1265 µM): 0.525
relative viability (NCI-H1915; first compound 0.4 µM): 0.501
relative viability (NCI-H1915; first compound 1.265 µM): 0.479
relative viability (NCI-H1993; first compound 0.04 µM): 0.908
relative viability (NCI-H1993; first compound 0.1265 µM): 1.07
relative viability (NCI-H1993; first compound 0.4 µM): 0.725
relative viability (NCI-H1993; first compound 1.265 µM): 0.311
relative viability (NCI-H1651; first compound 0.04 µM): 0.349
relative viability (NCI-H1651; first compound 0.1265 µM): 0.596
relative viability (NCI-H1651; first compound 0.4 µM): 0.62
relative viability (NCI-H1651; first compound 1.265 µM): 0.462
relative viability (COR-L23; first compound 0.04 µM): 0.468
relative viability (COR-L23; first compound 0.1265 µM): 0.403
relative viability (COR-L23; first compound 0.4 µM): 0.467
relative viability (COR-L23; first compound 1.265 µM): 0.233
relative viability (PC-14; first compound 0.04 µM): 0.733
relative viability (PC-14; first compound 0.1265 µM): 0.781
relative viability (PC-14; first compound 0.4 µM): 0.786
relative viability (PC-14; first compound 1.265 µM): 0.723
relative viability (EPLC-272H; first compound 0.04 µM): 0.503
relative viability (EPLC-272H; first compound 0.1265 µM): 0.654
relative viability (EPLC-272H; first compound 0.4 µM): 0.483
relative viability (EPLC-272H; first compound 1.265 µM): 0.261
relative viability (LU99A; first compound 0.04 µM): 0.583
relative viability (LU99A; first compound 0.1265 µM): 0.46
relative viability (LU99A; first compound 0.4 µM): 0.469
relative viability (LU99A; first compound 1.265 µM): 0.421
relative viability (NCI-H2023; first compound 0.04 µM): 0.825
relative viability (NCI-H2023; first compound 0.1265 µM): 0.967
relative viability (NCI-H2023; first compound 0.4 µM): 0.523
relative viability (NCI-H2023; first compound 1.265 µM): 0.507
relative viability (NCI-H838; first compound 0.04 µM): 0.68
relative viability (NCI-H838; first compound 0.1265 µM): 0.773
relative viability (NCI-H838; first compound 0.4 µM): 0.771
relative viability (NCI-H838; first compound 1.265 µM): 0.544
relative viability (NCI-H1355; first compound 0.04 µM): 0.647
relative viability (NCI-H1355; first compound 0.1265 µM): 0.753
relative viability (NCI-H1355; first compound 0.4 µM): 0.694
relative viability (NCI-H1355; first compound 1.265 µM): 0.615
relative viability (HCC-78; first compound 0.1265 µM): 0.451
relative viability (HCC-78; first compound 0.4 µM): 0.441
relative viability (HCC-78; first compound 1.265 µM): 0.448
relative viability (HCC-15; first compound 0.04 µM): 0.848
relative viability (HCC-15; first compound 0.1265 µM): 0.872
relative viability (HCC-15; first compound 0.4 µM): 0.834
relative viability (HCC-15; first compound 1.265 µM): 0.59
relative viability (ABC-1; first compound 0.04 µM): 1.12
relative viability (ABC-1; first compound 0.1265 µM): 1.36
relative viability (ABC-1; first compound 0.4 µM): 1.31
relative viability (ABC-1; first compound 1.265 µM): 0.985
relative viability (UMC-11; first compound 0.04 µM): 0.419
relative viability (UMC-11; first compound 0.1265 µM): 0.321
relative viability (UMC-11; first compound 0.4 µM): 0.347
relative viability (UMC-11; first compound 1.265 µM): 0.219
relative viability (HARA; first compound 0.04 µM): 0.558
relative viability (HARA; first compound 0.1265 µM): 0.49
relative viability (HARA; first compound 0.4 µM): 0.568
relative viability (HARA; first compound 1.265 µM): 0.405
relative viability (NCI-H2085; first compound 0.04 µM): 0.793
relative viability (NCI-H2085; first compound 0.1265 µM): 0.857
relative viability (NCI-H2085; first compound 0.4 µM): 0.779
relative viability (NCI-H2085; first compound 1.265 µM): 0.642
relative viability (NCI-H650; first compound 0.04 µM): 0.48
relative viability (NCI-H650; first compound 0.1265 µM): 0.394
relative viability (NCI-H650; first compound 0.4 µM): 0.413
relative viability (NCI-H650; first compound 1.265 µM): 0.22
relative viability (NCI-H2126; first compound 0.04 µM): 0.823
relative viability (NCI-H2126; first compound 0.1265 µM): 0.755
relative viability (NCI-H2126; first compound 0.4 µM): 0.786
relative viability (NCI-H2126; first compound 1.265 µM): 0.616
relative viability (LC-2-ad; first compound 0.04 µM): 0.692
relative viability (LC-2-ad; first compound 0.1265 µM): 0.696
relative viability (LC-2-ad; first compound 0.4 µM): 0.668
relative viability (LC-2-ad; first compound 1.265 µM): 0.454
relative viability (SW 1573; first compound 0.04 µM): 0.949
relative viability (SW 1573; first compound 0.1265 µM): 0.878
relative viability (SW 1573; first compound 0.4 µM): 0.699
relative viability (SW 1573; first compound 1.265 µM): 0.656
relative viability (NCI-H358; first compound 0.04 µM): 0.574
relative viability (NCI-H358; first compound 0.1265 µM): 0.795
relative viability (NCI-H358; first compound 0.4 µM): 0.536
relative viability (NCI-H358; first compound 1.265 µM): 0.229
relative viability (NCI-H2342; first compound 0.04 µM): 0.783
relative viability (NCI-H2342; first compound 0.1265 µM): 0.762
relative viability (NCI-H2342; first compound 0.4 µM): 0.818
relative viability (NCI-H2342; first compound 1.265 µM): 0.874
